# Reference: PubChem BioAssay AID328 (DTP/NCI, 2004)
# Several values for one entry are separate records, joined by “and”; a condition that tells them apart may be missing. Equal entries are not always repeated. Toxic doses and inconclusive results are not listed.
# Tested on: BDF1 mice, P388 leukemia ip, median survival T/C
# Assay: NCI In Vivo Anticancer Drug Screen. Data for tumor model P388 Leukemia (intraperitoneal) in B6D2F1 (BDF1) mice
# Conditions: endpoint: median survival time, higher = longer survival
# Procedure, shortened: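 T/C = treated-group survival ÷ vehicle-control survival; tumour transplanted into mice before dosing.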
# [1] = dose: 50.0 mg/kg/injection, schedule: Q04DX003 (ip), vehicle: saline
# [2] = dose: 100.0 mg/kg/injection, schedule: Q04DX003 (ip), vehicle: saline
# [3] = dose: 200.0 mg/kg/injection, schedule: Q04DX003 (ip), vehicle: saline
# [4] = dose: 50.0 mg/kg/injection, schedule: Q01DX009 (ip), vehicle: saline with Tween-80
# [5] = dose: 100.0 mg/kg/injection, schedule: Q01DX009 (ip), vehicle: saline with Tween-80
# [6] = dose: 200.0 mg/kg/injection, schedule: Q01DX009 (ip), vehicle: saline with Tween-80
# [7] = dose: 400.0 mg/kg/injection, schedule: Q04DX003 (ip), vehicle: saline
# [8] = dose: 100.0 mg/kg/injection, schedule: Q04DX003 (ip), vehicle: Klucel (hydroxypropylcellulose) (HPC)
# [9] = dose: 200.0 mg/kg/injection, schedule: Q04DX003 (ip), vehicle: Klucel (hydroxypropylcellulose) (HPC)
# [10] = dose: 400.0 mg/kg/injection, schedule: Q04DX003 (ip), vehicle: Klucel (hydroxypropylcellulose) (HPC)
# [11] = dose: 50.0 mg/kg/injection, schedule: Q04DX003 (ip), vehicle: Klucel (hydroxypropylcellulose) (HPC)
# [12] = dose: 100.0 mg/kg/injection, schedule: Q04DX003 (ip), vehicle: saline with Tween-80
# [13] = dose: 100.0 mg/kg/injection, schedule: Q01DX009 (ip), vehicle: other
# [14] = dose: 200.0 mg/kg/injection, schedule: Q01DX009 (ip), vehicle: other
# [15] = dose: 400.0 mg/kg/injection, schedule: Q01DX009 (ip), vehicle: other
# [16] = dose: 100.0 mg/kg/injection, schedule: Q01DX009 (ip), vehicle: saline
# [17] = dose: 200.0 mg/kg/injection, schedule: Q01DX009 (ip), vehicle: saline
# [18] = dose: 200.0 mg/kg/injection, schedule: Q04DX003 (ip), vehicle: saline with Tween-80
# [19] = dose: 400.0 mg/kg/injection, schedule: Q04DX003 (ip), vehicle: saline with Tween-80
# [20] = dose: 400.0 mg/kg/injection, schedule: Q01DX009 (ip), vehicle: saline
# [21] = dose: 200.0 mg/kg/injection, schedule: Q01DX001 (ip), vehicle: Klucel (hydroxypropylcellulose) (HPC)
structure (smiles),measurement,setting,value
NOCc1cccc(CON)c1,T/C,"dose: 12.5 mg/kg/injection, schedule: Q01DX009 (ip), vehicle: saline",100 % of control
same,T/C,"dose: 25.0 mg/kg/injection, schedule: Q01DX009 (ip), vehicle: saline",87 % of control
same,T/C,"dose: 50.0 mg/kg/injection, schedule: Q01DX009 (ip), vehicle: saline",91 % of control
same,T/C,[1],91 % of control
same,T/C,[2],91 % of control
same,T/C,[3],91 % of control
Cc1ccc(S(=O)(=O)NC(=O)Oc2nc3cc(Cl)ccc3o2)cc1,T/C,[4],99 % of control
same,T/C,[5],114 % of control
same,T/C,[6],96 % of control
Cc1ccc(NC(=O)Nc2ccccc2Cl)cc1Cl,T/C,[2],104 % of control
same,T/C,[3],95 % of control
same,T/C,[7],95 % of control
Nc1ccc(NS(=O)(=O)c2ccccc2)nc1,T/C,"dose: 100.0 mg/kg/injection, schedule: Q01DX009 (ip), vehicle: Klucel (hydroxypropylcellulose) (HPC)",100 % of control
same,T/C,[8],100 % of control
same,T/C,"dose: 200.0 mg/kg/injection, schedule: Q01DX009 (ip), vehicle: Klucel (hydroxypropylcellulose) (HPC)",100 % of control
same,T/C,[9],100 % of control
same,T/C,"dose: 400.0 mg/kg/injection, schedule: Q01DX009 (ip), vehicle: Klucel (hydroxypropylcellulose) (HPC)",95 % of control
same,T/C,[10],100 % of control
Nc1ccc(N=Nc2ccccc2)c(N)n1,T/C,[11],100 % of control
same,T/C,[8],100 % of control
C/C(=C\n1ccccc1=N)C(=O)c1ccc(F)cc1,T/C,[8],95 % of control
same,T/C,[9],90 % of control
same,T/C,[10],104 % of control
Oc1cccc2ccc(CC(O)(c3ccccc3)c3ccccc3)nc12,T/C,"dose: 25.0 mg/kg/injection, schedule: Q01DX009 (ip), vehicle: saline with Tween-80",108 % of control
same,T/C,[4],99 % of control
same,T/C,[5],108 % of control
CCCCOC(=O)c1ccc(NC(=O)Nc2ccccc2OC)cc1,T/C,[12],100 % of control
Brc1cc(Br)c(I)c(Br)c1,T/C,[13],105 % of control
same,T/C,[14],100 % of control
same,T/C,[15],90 % of control
C[C@@]1(O)CCCC[C@H]1O,T/C,[16],100 % of control
same,T/C,[2],110 % of control
same,T/C,[17],100 % of control
same,T/C,[3],100 % of control
same,T/C,[7],100 % of control
O=C1N=C2C=CC=CN2CC1O (stereo unspecified),T/C,[12],104 % of control
same,T/C,[18],112 % of control
same,T/C,[19],100 % of control
O=C(NC1CCCC2C(NC(=O)c3ccccc3)CCCC12)c1ccccc1 (stereo unspecified),T/C,"dose: 66.0 mg/kg/injection, schedule: Q01DX009 (ip), vehicle: saline",120 % of control
same,T/C,"dose: 100.0 mg/kg/injection, schedule: Q01DX001 (ip), vehicle: saline",104 % of control
same,T/C,[16],100 % of control and 109 % of control
same,T/C,"dose: 150.0 mg/kg/injection, schedule: Q01DX009 (ip), vehicle: saline",100 % of control and 109 % of control
same,T/C,"dose: 200.0 mg/kg/injection, schedule: Q01DX001 (ip), vehicle: saline",95 % of control
same,T/C,[17],115 % of control
same,T/C,"dose: 400.0 mg/kg/injection, schedule: Q01DX001 (ip), vehicle: saline",104 % of control
same,T/C,[20],100 % of control
CC(=O)[O][Pb]([O]C(C)=O)([c]1ccccc1)[c]1ccccc1,T/C,"dose: 44.0 mg/kg/injection, schedule: Q01DX009 (ip), vehicle: saline with Tween-80",177 % of control
same,T/C,"dose: 66.0 mg/kg/injection, schedule: Q01DX009 (ip), vehicle: saline with Tween-80",184 % of control
same,T/C,[5],201 % of control
same,T/C,"dose: 150.0 mg/kg/injection, schedule: Q01DX009 (ip), vehicle: saline with Tween-80",93 % of control
CCOC(=O)C(CSCSC)NC(=O)/C=C/c1cccnc1 (stereo unspecified),T/C,[16],96 % of control
same,T/C,[12],91 % of control
same,T/C,[17],106 % of control
same,T/C,[18],91 % of control
same,T/C,[20],104 % of control
same,T/C,[19],120 % of control
N#CCC(=O)O,T/C,"dose: 18.75 mg/kg/injection, schedule: Q01DX009 (ip), vehicle: saline with Tween-80",100 % of control
same,T/C,"dose: 37.5 mg/kg/injection, schedule: Q01DX009 (ip), vehicle: saline with Tween-80",100 % of control
same,T/C,"dose: 75.0 mg/kg/injection, schedule: Q01DX009 (ip), vehicle: saline with Tween-80",90 % of control
CCCSCCCC(=O)O,T/C,[11],91 % of control
same,T/C,[9],91 % of control
COc1ccc(Br)c(C=O)c1OS(=O)(=O)c1ccc(C)cc1,T/C,"dose: 25.0 mg/kg/injection, schedule: Q01DX009 (ip), vehicle: other",100 % of control
same,T/C,"dose: 50.0 mg/kg/injection, schedule: Q01DX009 (ip), vehicle: other",110 % of control
same,T/C,[13],94 % of control
same,T/C,[14],99 % of control
same,T/C,[15],95 % of control
CC(C)(O)C1C2OC(=O)C1C1(O)CC3OC34C(=O)OC2C14C (stereo unspecified),T/C,"dose: 12.5 mg/kg/injection, schedule: Q04DX003 (ip), vehicle: saline with Tween-80",109 % of control
same,T/C,"dose: 25.0 mg/kg/injection, schedule: Q04DX003 (ip), vehicle: saline with Tween-80",95 % of control
ClCCN=Cc1ccc(Cl)cc1,T/C,[5],116 % of control
same,T/C,[6],111 % of control
same,T/C,"dose: 400.0 mg/kg/injection, schedule: Q01DX009 (ip), vehicle: saline with Tween-80",120 % of control
OC(CCCCC(O)(c1ccccc1)c1ccccc1)(c1ccccc1)c1ccccc1,T/C,"dose: 100.0 mg/kg/injection, schedule: Q01DX001 (ip), vehicle: Klucel (hydroxypropylcellulose) (HPC)",105 % of control
same,T/C,[21],115 % of control
same,T/C,"dose: 400.0 mg/kg/injection, schedule: Q01DX001 (ip), vehicle: Klucel (hydroxypropylcellulose) (HPC)",100 % of control
CCOCCc1ccncc1,T/C,[1],112 % of control
same,T/C,[2],108 % of control
same,T/C,[3],100 % of control
O=CC12Cc3ccccc3C1CCC1(C2)OCCO1 (stereo unspecified),T/C,"dose: 100.0 mg/kg/injection, schedule: Q04DX003 (ip), vehicle: saline sonified",90 % of control
same,T/C,"dose: 200.0 mg/kg/injection, schedule: Q04DX003 (ip), vehicle: saline sonified",110 % of control
same,T/C,"dose: 400.0 mg/kg/injection, schedule: Q04DX003 (ip), vehicle: saline sonified",110 % of control
NN=C(c1ccccc1)c1ccccc1,T/C,"dose: 20.93 mg/kg/injection, schedule: Q01DX009 (ip), vehicle: Klucel (hydroxypropylcellulose) (HPC)",86 % of control
same,T/C,"dose: 31.25 mg/kg/injection, schedule: Q04DX003 (ip), vehicle: Klucel (hydroxypropylcellulose) (HPC)",90 % of control and 104 % of control
same,T/C,"dose: 41.87 mg/kg/injection, schedule: Q01DX009 (ip), vehicle: Klucel (hydroxypropylcellulose) (HPC)",95 % of control
same,T/C,"dose: 62.5 mg/kg/injection, schedule: Q04DX003 (ip), vehicle: Klucel (hydroxypropylcellulose) (HPC)",90 % of control
same,T/C,"dose: 125.0 mg/kg/injection, schedule: Q04DX003 (ip), vehicle: Klucel (hydroxypropylcellulose) (HPC)",90 % of control
same,T/C,"dose: 190.0 mg/kg/injection, schedule: Q04DX003 (ip), vehicle: Klucel (hydroxypropylcellulose) (HPC)",86 % of control
O.O.O=C(CC(=O)C(F)(F)F)C(F)(F)F.O=C(CC(=O)C(F)(F)F)C(F)(F)F.[Ni],T/C,[21],104 % of control
O=C(O)CCC1(c2ccccc2)CCCC1,T/C,"dose: 25.0 mg/kg/injection, schedule: Q01DX009 (ip), vehicle: water",91 % of control
same,T/C,"dose: 50.0 mg/kg/injection, schedule: Q01DX009 (ip), vehicle: water",88 % of control
same,T/C,"dose: 100.0 mg/kg/injection, schedule: Q01DX009 (ip), vehicle: water",103 % of control
same,T/C,"dose: 200.0 mg/kg/injection, schedule: Q01DX009 (ip), vehicle: water",97 % of control
same,T/C,"dose: 300.0 mg/kg/injection, schedule: Q01DX009 (ip), vehicle: water",106 % of control
CC1(C)N=C(N)N=C(N)N1c1cccc(OCCCOc2ccccc2)c1,T/C,"dose: 50.0 mg/kg/injection, schedule: Q01DX001 (ip), vehicle: Klucel (hydroxypropylcellulose) (HPC)",106 % of control
CCN(CC)P(Cl)(C1=C(Cl)C(=O)C(C#N)=C(C#N)C1=O)(N(CC)CC)N(CC)CC,T/C,"dose: 25.0 mg/kg/injection, schedule: Q01DX001 (ip), vehicle: saline with Tween-80",97 % of control
same,T/C,"dose: 50.0 mg/kg/injection, schedule: Q01DX001 (ip), vehicle: saline with Tween-80",95 % of control
same,T/C,"dose: 100.0 mg/kg/injection, schedule: Q01DX001 (ip), vehicle: saline with Tween-80",95 % of control
